Data reported in patent publication US7238779B2, “Acyl CoA:cholesterol acyltransferase (ACAT-2)” (The Regents of the University of California, priority 1998, dated 2007).

Test system: ACAT-2 protein
Test: inhibition of ACAT-2 protein activity
Format: biochemical
Conditions: general statement, concentration not given

SMILES | activity of the ACAT-2 protein is inhibited by the compound
CCCCCCCCCCC(C)(C)C(=O)Nc1c(OC)cc(OC)cc1OC [CI-976] | inhibited
CC(C)c1cc(C(C)C)c(CC(=O)NS(=O)(=O)Oc2c(C(C)C)cccc2C(C)C)c(C(C)C)c1 [CI-1011] | inhibited
CC(C)c1cccc(C(C)C)c1NC(=O)NCC1(c2ccc(N(C)C)cc2)CCCC1.Cl [PD 132301-2] | inhibited
O=C(O)c1cc[c]([Hg][OH])cc1 [PHMB] | inhibited
O=S(=O)(F)Cc1ccccc1 [PMSF] | inhibited
CC(=O)[C@H]1CC[C@H]2[C@@H]3CCC4=CC(=O)CC[C@]4(C)[C@H]3CC[C@]12C [progesterone] | inhibited
